Laboratory results from US10336732B2, “1-heterocyclyl isochromanyl compounds and analogs for treating CNS disorders” (Sunovion Pharmaceuticals Inc., priority 2015, dated 2019).

Test system: mice
Test: Neuropharmacological assay (SmartCube), behavioral signature of compound-treated mice
Assay type: in vivo
Conditions: i.p. 15 min before behavioral test, most efficacious dose(s) of 3 doses
Outline: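 Read-out is an automated video-based behavioral signature, scored as per-class probabilities (e.g., anxiolytic, antidepressant) against reference compounds. Dosing was i.p. at three doses, 15 min pre-test, in NMP, polyethylene glycol and propylene glycol. Values shown are from the most efficacious dose(s).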

Structure (SMILES)	AD: ADHD (probability that behavioral signature matches class)	AG: analgesic (probability that behavioral signature matches class)	AX: anxiolytic (probability that behavioral signature matches class)	CE: cognitive enhancer (probability that behavioral signature matches class)	DP: anti-depressant (probability that behavioral signature matches class)	HA: hallucinogen (probability that behavioral signature matches class)	MS: mood stabilizer (probability that behavioral signature matches class)	PS: anti-psychotic (probability that behavioral signature matches class)	SD: sedative hypnotic (probability that behavioral signature matches class)	UN: uncharacterized CNS activity (probability that behavioral signature matches class)
Fc1ccc2c(c1)[C@H]([C@@H]1CCCN1)OCCC2 [Compound I-107, (S)-2-((R)-8-fluoro-1,3,4,5-tetrahydrobenzo[c]oxepin-1-yl)pyrrolidine]	+ (LOQ ≤ + <5%)	++ (5% ≤ ++ <25%)	+++ (25% ≤ +++ <50%)	++ (5% ≤ ++ <25%)	++ (5% ≤ ++ <25%)	+ (LOQ ≤ + <5%)	++ (5% ≤ ++ <25%)	+++ (25% ≤ +++ <50%)	++ (5% ≤ ++ <25%)	++ (5% ≤ ++ <25%)
Fc1ccc2c(c1)CO[C@@H]2[C@@H]1CCCN1 [Compound I-118, (S)-2-((S)-5-fluoro-1,3-dihydroisobenzofuran-1-yl)pyrrolidine]	+ (LOQ ≤ + <5%)	++ (5% ≤ ++ <25%)	+++ (25% ≤ +++ <50%)	++ (5% ≤ ++ <25%)	++ (5% ≤ ++ <25%)	+ (LOQ ≤ + <5%)	++ (5% ≤ ++ <25%)	+++ (25% ≤ +++ <50%)	++ (5% ≤ ++ <25%)	+ (LOQ ≤ + <5%)
Cc1ccc2c(c1)[C@H](C1CNC1)OCC2 [Compound I-117, (S)-3-(7-methylisochroman-1-yl)azetidine]	+ (LOQ ≤ + <5%)	+ (LOQ ≤ + <5%)	++ (5% ≤ ++ <25%)	++ (5% ≤ ++ <25%)	++ (5% ≤ ++ <25%)	+ (LOQ ≤ + <5%)	+ (LOQ ≤ + <5%)	+++ (25% ≤ +++ <50%)	+ (LOQ ≤ + <5%)	+ (LOQ ≤ + <5%)
Fc1cccc2c1CCO[C@@H]2[C@H]1CCCN1 [Compound I-16, (R)-2-((S)-5-fluoroisochroman-1-yl)pyrrolidine]	+ (LOQ ≤ + <5%)	+ (LOQ ≤ + <5%)	++ (5% ≤ ++ <25%)	++ (5% ≤ ++ <25%)	++ (5% ≤ ++ <25%)	+ (LOQ ≤ + <5%)	++ (5% ≤ ++ <25%)	+++ (25% ≤ +++ <50%)	+ (LOQ ≤ + <5%)	+++ (25% ≤ +++ <50%)
Fc1ccc2c(c1)[C@@H]([C@@H]1CCCN1)OCC2 [Compound I-6, (2S)-2-((S)-7-fluoroisochroman-1-yl)pyrrolidine]	+ (LOQ ≤ + <5%)	+ (LOQ ≤ + <5%)	++ (5% ≤ ++ <25%)	+ (LOQ ≤ + <5%)	++ (5% ≤ ++ <25%)	+ (LOQ ≤ + <5%)	+ (LOQ ≤ + <5%)	++ (5% ≤ ++ <25%)	+ (LOQ ≤ + <5%)	+++ (25% ≤ +++ <50%)
Cc1ccc2c(c1)[C@@H]([C@H]1CCCN1)OCC2 [Compound I-27, (R)-2-((S)-7-methylisochroman-1-yl)pyrrolidine]	+ (LOQ ≤ + <5%)	++ (5% ≤ ++ <25%)	+++ (25% ≤ +++ <50%)	++ (5% ≤ ++ <25%)	++ (5% ≤ ++ <25%)	+ (LOQ ≤ + <5%)	++ (5% ≤ ++ <25%)	++ (5% ≤ ++ <25%)	+ (LOQ ≤ + <5%)	+ (LOQ ≤ + <5%)
Fc1ccc2c(c1)CO[C@H]2[C@H]1CCN1 [Compound I-128, (R)-2-((R)-5-fluoro-1,3-dihydroisobenzofuran-1-yl)azetidine]	+ (LOQ ≤ + <5%)	++ (5% ≤ ++ <25%)	++ (5% ≤ ++ <25%)	+ (LOQ ≤ + <5%)	++ (5% ≤ ++ <25%)	+ (LOQ ≤ + <5%)	+ (LOQ ≤ + <5%)	++++ (50% ≤ ++++)	+ (LOQ ≤ + <5%)	+ (LOQ ≤ + <5%)
Fc1cccc2c1[C@H]([C@@H]1CCCN1)OCCC2 [Compound I-105, (S)-2-((R)-9-fluoro-1,3,4,5-tetrahydrobenzo[c]oxepin-1-yl)pyrrolidine]	+ (LOQ ≤ + <5%)	++ (5% ≤ ++ <25%)	+++ (25% ≤ +++ <50%)	++ (5% ≤ ++ <25%)	++ (5% ≤ ++ <25%)	+ (LOQ ≤ + <5%)	+ (LOQ ≤ + <5%)	++ (5% ≤ ++ <25%)	++ (5% ≤ ++ <25%)	++++ (50% ≤ ++++)
Fc1ccc2c(c1)CCO[C@H]2[C@@H]1CCCCN1 [Compound I-74, (S)-2-((R)-6-fluoroisochroman-1-yl)piperidine]	+ (LOQ ≤ + <5%)	++ (5% ≤ ++ <25%)	++ (5% ≤ ++ <25%)	++ (5% ≤ ++ <25%)	++ (5% ≤ ++ <25%)	+ (LOQ ≤ + <5%)	+ (LOQ ≤ + <5%)	+++ (25% ≤ +++ <50%)	++ (5% ≤ ++ <25%)	+ (LOQ ≤ + <5%)
Fc1ccc2c(c1)CCCO[C@@H]2[C@H]1CCCN1 [Compound I-112, (R)-2-((S)-7-fluoro-1,3,4,5-tetrahydrobenzo[c]oxepin-1-yl)pyrrolidine]	+ (LOQ ≤ + <5%)	+ (LOQ ≤ + <5%)	++ (5% ≤ ++ <25%)	++ (5% ≤ ++ <25%)	++ (5% ≤ ++ <25%)	+ (LOQ ≤ + <5%)	+ (LOQ ≤ + <5%)	+++ (25% ≤ +++ <50%)	+ (LOQ ≤ + <5%)	+ (LOQ ≤ + <5%)
Fc1ccc2c(c1)[C@@H]([C@H]1CCCN1)OCCC2 [Compound I-108, (R)-2-((S)-8-fluoro-1,3,4,5-tetrahydrobenzo[c]oxepin-1-yl)pyrrolidine]	+ (LOQ ≤ + <5%)	++ (5% ≤ ++ <25%)	++ (5% ≤ ++ <25%)	++ (5% ≤ ++ <25%)	++ (5% ≤ ++ <25%)	+ (LOQ ≤ + <5%)	+ (LOQ ≤ + <5%)	+++ (25% ≤ +++ <50%)	++ (5% ≤ ++ <25%)	++ (5% ≤ ++ <25%)

Same assay, conditions: i.p. 15 min before behavioral test, most efficacious dose(s) of 3 doses

Structure (SMILES)	XG: anxiogenic (probability that behavioral signature matches class)
Fc1ccc2c(c1)[C@H]([C@@H]1CCCN1)OCCC2 [Compound I-107, (S)-2-((R)-8-fluoro-1,3,4,5-tetrahydrobenzo[c]oxepin-1-yl)pyrrolidine]	+ (LOQ ≤ + <5%)
Fc1ccc2c(c1)CO[C@@H]2[C@@H]1CCCN1 [Compound I-118, (S)-2-((S)-5-fluoro-1,3-dihydroisobenzofuran-1-yl)pyrrolidine]	+ (LOQ ≤ + <5%)
Cc1ccc2c(c1)[C@H](C1CNC1)OCC2 [Compound I-117, (S)-3-(7-methylisochroman-1-yl)azetidine]	+ (LOQ ≤ + <5%)
Fc1cccc2c1CCO[C@@H]2[C@H]1CCCN1 [Compound I-16, (R)-2-((S)-5-fluoroisochroman-1-yl)pyrrolidine]	+ (LOQ ≤ + <5%)
Fc1ccc2c(c1)[C@@H]([C@@H]1CCCN1)OCC2 [Compound I-6, (2S)-2-((S)-7-fluoroisochroman-1-yl)pyrrolidine]	+ (LOQ ≤ + <5%)
Cc1ccc2c(c1)[C@@H]([C@H]1CCCN1)OCC2 [Compound I-27, (R)-2-((S)-7-methylisochroman-1-yl)pyrrolidine]	+ (LOQ ≤ + <5%)
Fc1ccc2c(c1)CO[C@H]2[C@H]1CCN1 [Compound I-128, (R)-2-((R)-5-fluoro-1,3-dihydroisobenzofuran-1-yl)azetidine]	+ (LOQ ≤ + <5%)
Fc1cccc2c1[C@H]([C@@H]1CCCN1)OCCC2 [Compound I-105, (S)-2-((R)-9-fluoro-1,3,4,5-tetrahydrobenzo[c]oxepin-1-yl)pyrrolidine]	+ (LOQ ≤ + <5%)
Fc1ccc2c(c1)CCO[C@H]2[C@@H]1CCCCN1 [Compound I-74, (S)-2-((R)-6-fluoroisochroman-1-yl)piperidine]	+ (LOQ ≤ + <5%)
Fc1ccc2c(c1)CCCO[C@@H]2[C@H]1CCCN1 [Compound I-112, (R)-2-((S)-7-fluoro-1,3,4,5-tetrahydrobenzo[c]oxepin-1-yl)pyrrolidine]	+ (LOQ ≤ + <5%)
Fc1ccc2c(c1)[C@@H]([C@H]1CCCN1)OCCC2 [Compound I-108, (R)-2-((S)-8-fluoro-1,3,4,5-tetrahydrobenzo[c]oxepin-1-yl)pyrrolidine]	+ (LOQ ≤ + <5%)
